Patent US10457710B2, “Antimicrobial peptides, their variants and uses” (priority 2015, dated 2019)
Where a SMILES comes first, the peptide text is derived from it. [ ]: non-standard residue; d: D form.

Legend:
Assay type in all cases: cell-based
C. glabrata = assay: MIC, clinical yeast strains
Protocol: (§1) Minimum inhibition concetrations (MICs) were determined against Escherichia coli (ATCC 25922), Staphylococcus aureus (ATCC 25923), Klebsiella pneumoniae (ATCC 10031) and Pseudomonas aeruginosa (ATCC 27853). Also clinical strains of E. coli, K. pneumoniae, E. cloacae, P. aeruginosa, Serratia marcescens, Proteus mirabilis, S. pneumoniae, Acinetobacter baumannii, A. johnsonii and S. aureus were used for MICs assays. Additionally, clinical strains of yeast including Candida albicans, C. glabrata, C. parapsilosis and C. quillermondiae were used. The susceptibility of these microorganisms to Chain peptides were determined using micro broth dilution assay. Colonies of the respective microorganism from Muller Hinton (MH) agar plates incubated overnight were suspended in MH broth media and final concentration of microorganism was adjusted to 5.0×10^5 cfu/ml. An aliquot of 10 μl of each Chain peptide, or gentamicin, tetracycline as reference antibiotics were added in differing concentrations along with 90 μl of bacterial suspension to 96 well polypropylene plates and incubated at 37° C. for 20 to 24 hours. Concentrations of Chain peptides and reference antibiotics ranged from 0.125 to 128 μg/ml and the MICs were recorded as the lowest concentration with no visual growth of bacteria. Similarly, antifungal MICs were tested in Potato dextrose broth.
(§2) Clinical strains of yeasts including Candida albicans, C. glabrata, C. parapsilosis and C. quillermondiae were also tested with the 12 Chain peptides. The minimum inhibitory concentration (MICs) varied between these peptides and are presented in Tables 4a, 4b, 4c and 5a, 5b, 5c. Peptides Chain 105, 201 and 308 are broad spectrum antimicrobials with MICs between 0.5-32 μg/ml against all the bacteria and yeasts tested, except Serratia marcescens and Proteus mirabilis, against which the MICs were between 64-128 μg/ml. Peptide Chain 306 has narrow spectrum activity against E. coli at 1 μg/ml and for the rest of the bacterial strains at >32 μg/ml (FIG. 10c).

Candida albicans = assay: MIC, clinical yeast strains
Protocol: as §1, §2

C. parapsilosis = assay: MIC, clinical yeast strains
Protocol: as §1, §2

C. quillermondiae = assay: MIC, clinical yeast strains; design: Minimum inhibitory concentration: unit: μg/ml; settings: C. quillermondiae clinical yeast strain 1
Protocol: as §1, §2

[1] = test system: clinical strains of E. coli; assay: MIC, microdilution, clinical strains; settings: microdilution, Muller Hinton broth-cation adjusted, 0.02% BSA, 0.2% acetic acid
Protocol: as §1, §2

[2] = test system: clinical strains of P. aeruginosa; assay: MIC, microdilution, clinical strains; settings: 0.02% BSA, 0.2% acetic acid
Protocol: as §1, §2

[3] = test system: clinical strains of E. cloacae; assay: MIC, microdilution, clinical strains; settings: 0.02% BSA, 0.2% acetic acid
Protocol: as §1, §2

[4] = test system: clinical strains of S. aureus; assay: MIC, microdilution, clinical strains; settings: 0.02% BSA, 0.2% acetic acid
Protocol: as §1, §2

[5] = test system: clinical strains of Serratia marcescens; assay: MIC, microdilution, clinical strains; settings: 0.02% BSA, 0.2% acetic acid
Protocol: as §1, §2

[6] = test system: clinical strains of K. pneumoniae; assay: MIC, microdilution, clinical strains; settings: 0.02% BSA, 0.2% acetic acid
Protocol: as §1, §2

[7] = test system: clinical strains of Proteus mirabilis; assay: MIC, microdilution, clinical strains; settings: 0.02% BSA, 0.2% acetic acid
Protocol: as §1, §2

[8] = test system: clinical strains of S. pneumoniae; assay: MIC, microdilution, clinical strains; settings: 0.02% BSA, 0.2% acetic acid
Protocol: as §1, §2

[9] = C. glabrata clinical yeast strain 1
[10] = C. glabrata clinical yeast strain 2
[11] = C. glabrata clinical yeast strain 3
[12] = C. glabrata clinical yeast strain 4
[13] = Candida albicans clinical yeast strain 1
[14] = Candida albicans clinical yeast strain 2
[15] = Candida albicans clinical yeast strain 3
[16] = Candida albicans clinical yeast strain 4
[17] = Candida albicans clinical yeast strain 5
[18] = C. parapsilosis clinical yeast strain 1
[19] = C. parapsilosis clinical yeast strain 2
[20] = C. parapsilosis clinical yeast strain 3
[21] = C. parapsilosis clinical yeast strain 4
[22] = Pseudomonas aeruginosa strain 1, Muller Hinton broth-cation adjusted
[23] = Pseudomonas aeruginosa strain 2, Muller Hinton broth-cation adjusted
[24] = Pseudomonas aeruginosa strain 3, Muller Hinton broth-cation adjusted
[25] = Pseudomonas aeruginosa strain 4, Muller Hinton broth-cation adjusted
[26] = Pseudomonas aeruginosa strain 5, Muller Hinton broth-cation adjusted
[27] = Enterobacter cloacae strain 1, Muller Hinton broth-cation adjusted
[28] = Enterobacter cloacae strain 2, Muller Hinton broth-cation adjusted
[29] = Enterobacter cloacae strain 3, Muller Hinton broth-cation adjusted
[30] = Enterobacter cloacae strain 4, Muller Hinton broth-cation adjusted
[31] = Enterobacter cloacae strain 5, Muller Hinton broth-cation adjusted
[32] = Staphylococcus aureus strain 1, Muller Hinton broth-cation adjusted
[33] = Staphylococcus aureus strain 2, Muller Hinton broth-cation adjusted
[34] = Staphylococcus aureus strain 3, Muller Hinton broth-cation adjusted
[35] = Staphylococcus aureus strain 4, Muller Hinton broth-cation adjusted
[36] = Staphylococcus aureus strain 5, Muller Hinton broth-cation adjusted
[37] = Serratia marcescens strain 1, Muller Hinton broth-cation adjusted
[38] = Serratia marcescens strain 2, Muller Hinton broth-cation adjusted
[39] = Serratia marcescens strain 3, Muller Hinton broth-cation adjusted
[40] = Serratia marcescens strain 4, Muller Hinton broth-cation adjusted
[41] = Serratia marcescens strain 5, Muller Hinton broth-cation adjusted
[42] = Klebsiella pneumoniae strain 1, Muller Hinton broth-cation adjusted
[43] = Klebsiella pneumoniae strain 2, Muller Hinton broth-cation adjusted
[44] = Klebsiella pneumoniae strain 3, Muller Hinton broth-cation adjusted
[45] = Klebsiella pneumoniae strain 4, Muller Hinton broth-cation adjusted
[46] = Klebsiella pneumoniae strain 5, Muller Hinton broth-cation adjusted
[47] = Proteus mirabilis strain 1, Muller Hinton broth-cation adjusted
[48] = Proteus mirabilis strain 2, Muller Hinton broth-cation adjusted
[49] = Proteus mirabilis strain 3, Muller Hinton broth-cation adjusted
[50] = Proteus mirabilis strain 4, Muller Hinton broth-cation adjusted
[51] = Proteus mirabilis strain 5, Muller Hinton broth-cation adjusted
[52] = Streptococcus pneumoniae strain 1, Muller Hinton broth-cation adjusted
[53] = Streptococcus pneumoniae strain 2, Muller Hinton broth-cation adjusted
[54] = Streptococcus pneumoniae strain 3, Muller Hinton broth-cation adjusted
[55] = Streptococcus pneumoniae strain 4, Muller Hinton broth-cation adjusted
[56] = Streptococcus pneumoniae strain 5, Muller Hinton broth-cation adjusted

CC[C@@H](C)[C@@H](N)C(=O)N[C@H](Cc1c[nH]c2ccccc12)C(=O)N[C@H](CCCCN)C(=O)N[C@H](CCCNC(=N)N)C(=O)N[C@H](Cc1ccccc1)C(=O)N[C@H](CCCNC(=N)N)C(=O)N[C@H](CC(C)C)C(=O)N[C@H](Cc1ccccc1)C(=O)N[C@H](CCCCN)C(=O)N[C@H](CCCCN)C(=O)N[C@H](Cc1c[nH]c2ccccc12)C(=O)O [Chain304D] (H-[dI][dW][dK][dR][dF][dR][dL][dF][dK][dK][dW]-OH)
Minimum inhibitory concentration (C. glabrata; [9]): 16
Minimum inhibitory concentration (C. glabrata; [10]): 16
Minimum inhibitory concentration (C. glabrata; [11]): 8
Minimum inhibitory concentration (C. glabrata; [12]): 64
Minimum inhibitory concentration (Candida albicans; [13]): 16
Minimum inhibitory concentration (Candida albicans; [14]): 16
Minimum inhibitory concentration (Candida albicans; [15]): 16
Minimum inhibitory concentration (Candida albicans; [16]): 16
Minimum inhibitory concentration (Candida albicans; [17]): 32
Minimum inhibitory concentration (C. parapsilosis; [18]): 64
Minimum inhibitory concentration (C. parapsilosis; [19]): 64
Minimum inhibitory concentration (C. parapsilosis; [20]): 32
Minimum inhibitory concentration (C. parapsilosis; [21]): 16
Minimum inhibitory concentration (C. quillermondiae): 16
Minimum inhibitory concentration ([1]; Escherichia coli strain 1): 1
Minimum inhibitory concentration ([1]; Escherichia coli strain 2): 16
Minimum inhibitory concentration ([1]; Escherichia coli strain 3): 16
Minimum inhibitory concentration ([1]; Escherichia coli strain 4): 32
Minimum inhibitory concentration ([1]; Escherichia coli strain 5): 32
Minimum inhibitory concentration [2, 22]: 32
Minimum inhibitory concentration [2, 23]: 64
Minimum inhibitory concentration [2, 24]: 64
Minimum inhibitory concentration [2, 25]: 64
Minimum inhibitory concentration [2, 26]: 16
Minimum inhibitory concentration [3, 27]: 64
Minimum inhibitory concentration [3, 28]: 64
Minimum inhibitory concentration [3, 29]: 128
Minimum inhibitory concentration [3, 30]: 128
Minimum inhibitory concentration [3, 31]: 32
Minimum inhibitory concentration [4, 32]: 32
Minimum inhibitory concentration [4, 33]: 32
Minimum inhibitory concentration [4, 34]: 16
Minimum inhibitory concentration [4, 35]: 16
Minimum inhibitory concentration [4, 36]: 16
Minimum inhibitory concentration [5, 37]: >128
Minimum inhibitory concentration [5, 38]: >128
Minimum inhibitory concentration [5, 39]: >128
Minimum inhibitory concentration [5, 40]: >128
Minimum inhibitory concentration [5, 41]: >128
Minimum inhibitory concentration [6, 42]: >128
Minimum inhibitory concentration [6, 43]: >128
Minimum inhibitory concentration [6, 44]: >128
Minimum inhibitory concentration [6, 45]: >128
Minimum inhibitory concentration [6, 46]: 64
Minimum inhibitory concentration [7, 47]: >128
Minimum inhibitory concentration [7, 48]: >128
Minimum inhibitory concentration [7, 49]: >128
Minimum inhibitory concentration [7, 50]: >128
Minimum inhibitory concentration [7, 51]: >128
Minimum inhibitory concentration [8, 52]: 128
Minimum inhibitory concentration [8, 53]: 128
Minimum inhibitory concentration [8, 54]: 128
Minimum inhibitory concentration [8, 55]: 128
Minimum inhibitory concentration [8, 56]: 64

CC(C)C[C@@H](NC(=O)[C@H](N)CCCCN)C(=O)N[C@H](CCCCN)C(=O)N[C@H](Cc1c[nH]c2ccccc12)C(=O)N[C@H](Cc1ccccc1)C(=O)N[C@H](Cc1c[nH]c2ccccc12)C(=O)N[C@H](CC(C)C)C(=O)N[C@H](Cc1ccccc1)C(=O)N[C@H](CCCCN)C(=O)N[C@H](CCCCN)C(=O)N[C@H](CCCNC(=N)N)C(=O)O [Chain311D] (H-[dK][dL][dK][dW][dF][dW][dL][dF][dK][dK][dR]-OH)
Minimum inhibitory concentration (C. glabrata; [9]): 16
Minimum inhibitory concentration (C. glabrata; [10]): 16
Minimum inhibitory concentration (C. glabrata; [11]): 8
Minimum inhibitory concentration (C. glabrata; [12]): 64
Minimum inhibitory concentration (Candida albicans; [13]): 8
Minimum inhibitory concentration (Candida albicans; [14]): 8
Minimum inhibitory concentration (Candida albicans; [15]): 8
Minimum inhibitory concentration (Candida albicans; [16]): 16
Minimum inhibitory concentration (Candida albicans; [17]): 16
Minimum inhibitory concentration (C. parapsilosis; [18]): 16
Minimum inhibitory concentration (C. parapsilosis; [19]): 8
Minimum inhibitory concentration (C. parapsilosis; [20]): 8
Minimum inhibitory concentration (C. parapsilosis; [21]): 8
Minimum inhibitory concentration (C. quillermondiae): 4
Minimum inhibitory concentration ([1]; Escherichia coli strain 1): 2
Minimum inhibitory concentration ([1]; Escherichia coli strain 2): 2
Minimum inhibitory concentration ([1]; Escherichia coli strain 3): 1
Minimum inhibitory concentration ([1]; Escherichia coli strain 4): 0.5
Minimum inhibitory concentration ([1]; Escherichia coli strain 5): 1
Minimum inhibitory concentration [2, 22]: 16
Minimum inhibitory concentration [2, 23]: 8
Minimum inhibitory concentration [2, 24]: 16
Minimum inhibitory concentration [2, 25]: 8
Minimum inhibitory concentration [2, 26]: 4
Minimum inhibitory concentration [3, 27]: 4
Minimum inhibitory concentration [3, 28]: 4
Minimum inhibitory concentration [3, 29]: 4
Minimum inhibitory concentration [3, 30]: 4
Minimum inhibitory concentration [3, 31]: 2
Minimum inhibitory concentration [4, 32]: 1
Minimum inhibitory concentration [4, 33]: 1
Minimum inhibitory concentration [4, 34]: 1
Minimum inhibitory concentration [4, 35]: 1
Minimum inhibitory concentration [4, 36]: 1
Minimum inhibitory concentration [5, 37]: >128
Minimum inhibitory concentration [5, 38]: >128
Minimum inhibitory concentration [5, 39]: >128
Minimum inhibitory concentration [5, 40]: >128
Minimum inhibitory concentration [5, 41]: >128
Minimum inhibitory concentration [6, 42]: 8
Minimum inhibitory concentration [6, 43]: 8
Minimum inhibitory concentration [6, 44]: 4
Minimum inhibitory concentration [6, 45]: 8
Minimum inhibitory concentration [6, 46]: 4
Minimum inhibitory concentration [7, 47]: >128
Minimum inhibitory concentration [7, 48]: 128
Minimum inhibitory concentration [7, 49]: 128
Minimum inhibitory concentration [7, 50]: >128
Minimum inhibitory concentration [7, 51]: >128
Minimum inhibitory concentration [8, 52]: 16
Minimum inhibitory concentration [8, 53]: 8
Minimum inhibitory concentration [8, 54]: 16
Minimum inhibitory concentration [8, 55]: 4
Minimum inhibitory concentration [8, 56]: 8
